Data as given in PubChem BioAssay AID2060906 (Molecular Pharmacology Branch, DTP, NCI, 2025).
Where “and” joins values, the source holds several entries; their conditions need not be identical. Identical values can stand only once.

System: 485176-168-R4-J1-PDC complex spheroid growth
Assay: Anticancer human tumor 485176-168-R4-J1-PDC patient-derived pancreatic adenocarcinoma cell line growth inhibition [RAS]
Conditions: for viability, T/C: stronger effect = lower value; active = viability on the fitted dose curve at most 10% of control; inactive = the rest
How it was run: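 Agents were tested in combination matrices in half-log decrements from a top concentration at or near clinical Cmax (10 microM if undetermined). Targets were multi-cell spheroids of tumour lines plus HUVEC and MSC stromal cells.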

[1] = curve of first compound, second compound 0.000949 µM
[2] = curve of first compound, second compound 0.003 µM
[3] = curve of first compound, second compound 0.00949 µM
[4] = curve of first compound, second compound 0.03 µM
[5] = curve of first compound, second compound 0.0949 µM
[6] = curve of first compound, second compound 0.3 µM
[7] = second compound 0.000949 µM, first compound 0.0316 µM
[8] = second compound 0.000949 µM, first compound 0.1 µM
[9] = second compound 0.003 µM, first compound 0.0316 µM
[10] = second compound 0.003 µM, first compound 0.1 µM
[11] = second compound 0.00949 µM, first compound 0.0316 µM
[12] = second compound 0.00949 µM, first compound 0.1 µM
[13] = second compound 0.03 µM, first compound 0.0316 µM
[14] = second compound 0.03 µM, first compound 0.1 µM
[15] = second compound 0.0949 µM, first compound 0.0316 µM
[16] = second compound 0.0949 µM, first compound 0.1 µM
[17] = second compound 0.3 µM, first compound 0.0316 µM
[18] = second compound 0.3 µM, first compound 0.1 µM
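Also: spheroids exposed to compounds for seven days before readout.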
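For viability, T/C in this document: luminescence viability expressed relative to DMSO vehicle wells set as 100%.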

CC(C)n1nc(-c2ccc3oc(N)nc3c2)c2c(N)ncnc21 + CCn1c(-c2cccnc2C(C)OC)c2c3cc(ccc31)N1CCOC(CC(NC(=O)C(C(C)C)N(C)C(=O)C3(F)CCN(C(=O)C#CC(C)(C)N(C)C)CC3)C(=O)N3CCCC(N3)C(=O)OCC(C)(C)C2)C1
17.4 nM: IC50 [5]
16.6 nM: IC50 [4]
21.3 nM: IC50 [3]
inactive: viability, T/C (second compound 0.000949 µM, first compound 0.000316 µM) 104% | viability, T/C (second compound 0.000949 µM, first compound 0.001 µM) 81.1% | viability, T/C (second compound 0.000949 µM, first compound 0.00316 µM) 93.7% | viability, T/C (second compound 0.000949 µM, first compound 0.01 µM) 75.7% | viability, T/C [7] 38.5% | viability, T/C [8] 17.7% | viability, T/C (second compound 0.003 µM, first compound 0.000316 µM) 82.1% | viability, T/C (second compound 0.003 µM, first compound 0.001 µM) 79.9% | viability, T/C (second compound 0.003 µM, first compound 0.00316 µM) 85.5% | viability, T/C (second compound 0.003 µM, first compound 0.01 µM) 72.5% | viability, T/C [9] 48.1% | viability, T/C [10] 21.4% | viability, T/C (second compound 0.00949 µM, first compound 0.000316 µM) 88.1% | viability, T/C (second compound 0.00949 µM, first compound 0.001 µM) 89.4% | viability, T/C (second compound 0.00949 µM, first compound 0.00316 µM) 84.1% | viability, T/C (second compound 0.00949 µM, first compound 0.01 µM) 61.8% | viability, T/C [11] 43.9% | viability, T/C [12] 16% | viability, T/C (second compound 0.03 µM, first compound 0.000316 µM) 85.5% | viability, T/C (second compound 0.03 µM, first compound 0.001 µM) 84.5% | viability, T/C (second compound 0.03 µM, first compound 0.00316 µM) 85.7% | viability, T/C (second compound 0.03 µM, first compound 0.01 µM) 62.6% | viability, T/C [13] 33% | viability, T/C [14] 18.6% | viability, T/C (second compound 0.0949 µM, first compound 0.000316 µM) 90.5% | viability, T/C (second compound 0.0949 µM, first compound 0.001 µM) 86.9% | viability, T/C (second compound 0.0949 µM, first compound 0.00316 µM) 69% | viability, T/C (second compound 0.0949 µM, first compound 0.01 µM) 65% | viability, T/C [15] 36.9% | viability, T/C [16] 19.9% | viability, T/C (second compound 0.3 µM, first compound 0.000316 µM) 76.9% | viability, T/C (second compound 0.3 µM, first compound 0.001 µM) 72.8% | viability, T/C (second compound 0.3 µM, first compound 0.00316 µM) 59.3% | viability, T/C (second compound 0.3 µM, first compound 0.01 µM) 44.1% | viability, T/C [17] 34.1% | viability, T/C [18] 14.2%
7.54 nM: IC50 [6]
22.2 nM: IC50 [1]
28.6 nM: IC50 [2]

Cc1nc(N2CCC3(CC2)COC(C)C3N)c(CO)nc1Sc1ccnc(N)c1Cl (stereo unspecified)
> 10000 nM: IC50 (curve of compound)
inactive: viability, T/C (compound 0.0316 µM) 102% [middle of 4 runs] | viability, T/C (compound 0.1 µM) 86.5% [middle of 4 runs] | viability, T/C (compound 0.316 µM) 82.8% [middle of 4 runs] | viability, T/C (compound 1 µM) 74.3% [middle of 4 runs] | viability, T/C (compound 3.16 µM) 84.5% [middle of 4 runs] | viability, T/C (compound 10 µM) 63.4% (2×) and 81.9% and 74.9%

CCC(CC)c1cc(NC2CCC(N)C2)n2nccc2n1 (stereo unspecified) + CCn1c(-c2cccnc2C(C)OC)c2c3cc(ccc31)N1CCOC(CC(NC(=O)C(C(C)C)N(C)C(=O)C3(F)CCN(C(=O)C#CC(C)(C)N(C)C)CC3)C(=O)N3CCCC(N3)C(=O)OCC(C)(C)C2)C1
1080 nM: IC50 [4]
1010 nM: IC50 [5]
1440 nM: IC50 [2]
1260 nM: IC50 [1]
1270 nM: IC50 [3]
521 nM: IC50 [6]
inactive: viability, T/C [7] 94.6% | viability, T/C [8] 117% | viability, T/C (second compound 0.000949 µM, first compound 0.316 µM) 86% | viability, T/C (second compound 0.000949 µM, first compound 1 µM) 64.1% | viability, T/C [9] 105% | viability, T/C [10] 104% | viability, T/C (second compound 0.003 µM, first compound 0.316 µM) 100% | viability, T/C (second compound 0.003 µM, first compound 1 µM) 72.1% | viability, T/C [11] 88.4% | viability, T/C [12] 79.7% | viability, T/C (second compound 0.00949 µM, first compound 0.316 µM) 98.8% | viability, T/C (second compound 0.00949 µM, first compound 1 µM) 62.6% | viability, T/C [13] 96% | viability, T/C [14] 105% | viability, T/C (second compound 0.03 µM, first compound 0.316 µM) 95.9% | viability, T/C (second compound 0.03 µM, first compound 1 µM) 53.7% | viability, T/C [15] 87% | viability, T/C [16] 77.3% | viability, T/C (second compound 0.0949 µM, first compound 0.316 µM) 94.2% | viability, T/C (second compound 0.0949 µM, first compound 1 µM) 50.3% | viability, T/C [17] 82.9% | viability, T/C [18] 72.8% | viability, T/C (second compound 0.3 µM, first compound 0.316 µM) 64.5% | viability, T/C (second compound 0.3 µM, first compound 1 µM) 32.7%
active: viability, T/C (second compound 0.000949 µM, first compound 3.16 µM) 2.09% | viability, T/C (second compound 0.000949 µM, first compound 10 µM) 0.42% | viability, T/C (second compound 0.003 µM, first compound 3.16 µM) 2.19% | viability, T/C (second compound 0.003 µM, first compound 10 µM) 0.46% | viability, T/C (second compound 0.00949 µM, first compound 3.16 µM) 2.5% | viability, T/C (second compound 0.00949 µM, first compound 10 µM) 0.59% | viability, T/C (second compound 0.03 µM, first compound 3.16 µM) 2.5% | viability, T/C (second compound 0.03 µM, first compound 10 µM) 0.41% | viability, T/C (second compound 0.0949 µM, first compound 3.16 µM) 2.64% | viability, T/C (second compound 0.0949 µM, first compound 10 µM) 0.46% | viability, T/C (second compound 0.3 µM, first compound 3.16 µM) 2.76% | viability, T/C (second compound 0.3 µM, first compound 10 µM) 0.53%
